From patent US5763430A, “Method of treating a viral infection by administering a steroid compound” (priority 1995, dated 1998)
Converted amounts (≈) assume the structure as drawn. “Also recorded” adds a separate entry of the source.

Key:
[1] = tested on: C. albicans; experiment: antibiotic activity (MIC); type: cell-based; conditions: Candida albicans; C. albicans; read-out: MIC
Text: (§1) Thus, it is possible to achieve an antimicrobial steroid with or without squalamine-like pharmacological activity.

[2] = tested on: E. coli; experiment: antibiotic activity (MIC); type: cell-based; conditions: Escherichia coli; E. coli; read-out: MIC
Text: as §1

[3] = tested on: S. aureus; experiment: antibiotic activity (MIC); type: cell-based; conditions: Staphylococcus aureus; S. aureus; read-out: MIC
Text: as §1

[4] = tested on: stage 59-60 Xenopus tadpole; experiment: Xenopus tadpole assay; conditions: for tadpole response: 10 μg/ml, about 1 hour; for similarity of pharmacologic activity in tadpole assay: in vivo
[5] = tested on: chick embryo vitelline capillaries; experiment: chick embryo vitelline capillary regression assay; type: in vivo; conditions: for relative activity: Table 5
Protocol: Using the chick embryo vitelline capillaries assay, compounds were tested for their ability to induce capillary regression. Each compound was applied in 0.1 ml of 15% Ficol 400 and PBS onto the embryo, and vascular regression was assessed after 60 minutes.
The 3-day chick embryo consists of an embryonic disc from which numerous vessels emerge and return, forming a "FIG. 8"-shaped structure--the embryo in the center with vascular loops extending outward over both poles. […] Following a lag period of around 15 minutes, the constriction of continuity between capillary and secondary vessels, generally on the "venous" side, was observed. Continued pulsatile blood flow progressed, resulting in a "swelling" of the blind tube, followed by a pinching off of the remaining connection and formation of an enclosed vascular sac resembling a "blood island." This process progressed until only the largest vessels remained intact.

[6] = effect on fasting blood glucose in mice; type: in vivo, mouse (male CD-1); conditions: i.v.
Protocol: To study the effect of steroid administrator or the NHE responsible for secretion of insulin, several of the aminosterols from shark liver were administered to fasting mice. Male CD-1 mice were assigned to one of four treatment groups. Whole blood glucose was tested using glucometer (Lifescan Glucometer II and One Touch test strips). Statistical analysis was via one-way analysis of variance (ANOVA) followed by subsequent Bonferonni's t-test.

[7] = tested on: Human ovarian carcinoma SKOV3; experiment: growth inhibition in vitro; type: cell-based; conditions: SKOV3
Protocol: As set forth in Table 7 below, all malignant tumors evaluated in tissue culture, endothelial cells and vascular smooth muscle cells were sensitive to inhibition. Thus, compound 1436 has application in the control of growth factor dependent proliferation of many types of tissue.
Using the assay described above, the anticancer effects of compound 1437 against several cancer lines was assessed.

[8] = tested on: L1210 lymphoblastic leukemia cells; experiment: mouse model of leukemia; type: in vivo
Text: C57B mice were inoculated with L1210 lymphoblastic leukemia cells at an inoculum that causes leukemia in 100% of animals.

[9] = tested on: P. aerug; experiment: antibiotic activity (MIC); type: cell-based; conditions: P. aerug; read-out: MIC
Text: as §1

[10] = tested on: human microvascular cells; experiment: inhibition of endothelial cell cord formation in vitro; type: cell-based; conditions: for minimal effective concentration: Homo sapiens, Endothelial cell, Table II, read-out: Minimum Effective Concentration, Cord Formation
Text: Endothelial cells have the capacity in vitro to form tubular aggregates resembling capillaries in various early stages of formation. This conversion occurs under relatively specific conditions, in which essential growth factors along with an effective substratum are provided. It has been shown that both the interaction of growth factors with the endothelial cell and its attachment to a substratum activate the NHE. The activation of this exchanger is believed to be required for subsequent morphologic transformation of the endothelial cell into a multicellular tubular structure.
To assess the effect of compounds on the cord-like structures formed by human microvascular cells when plated in the presence of VEGF (Vascular Endothelial Growth Factor) and basic fibroblast growth factor on a collagen matrix, a standard cord formation assay was used.

[11] = tested on: NHE; experiment: comparison of compound 319 with squalamine through the assays
Text: Moreover, other aminosterols have shown anti-angiogenic activity. Compounds were subjected to a various assays, including the chick embryo capillary regression assay, the tadpole assay, the assay for inhibition of endothelial cord formation, and the assay for direct inhibition of NHE, as described above, to determine their utilities. As evident from the above data, correlation among the results from the chick, tadpole and in vitro inhibition of endothelial cell cord formation assays is excellent.
Through the application of these assays, compound 319 emerged as an attractive alternative to squalamine. […] Further properties of compound 319 are discussed below.

[12] = tested on: B16 melanoma; experiment: suppression of growth of B16 melanoma in C57B mice; type: in vivo, mouse; conditions: subcutaneous, C57B mice, FIG. 6
Protocol: The growth of B16 melanoma in C57B mice is dependent upon neovascularization.
Using the growth of B16 melanoma cells in C57B mice, a recognized model for the evaluation of inhibitors of angiogenesis on the growth of cancers, the effects of subcutaneous, intraperitoneal and oral administration of squalamine were evaluated.
Based on the idea that tumor growth involves both the clonal expansion of a malignant cell along with the development of a supporting vascular supply, a combination of compound 1436 with squalamine was tested to determine whether it would achieve a synergistic effect on solid tumor growth. This concept was evaluated in the B16 melanoma model.
Animals were implanted with B16 melanoma followed by treatment with compound 1436 or 1256 administered in a combined schedule or separately. […] Thus, a combination of these two compounds achieves a therapeutic benefit in tumors dependent on neovascularization that may prevent metastatic spread.

[13] = effect on arterial resistance in the rat; type: in vivo; conditions: 40 μg noradrenaline, 30 minutes after compound 1436
Protocol: A 200-g rat was catheterized in the right carotid artery, and the compound was introduced over a ten-second period to a total dosage of 5 mg/kg. Within 30 seconds, the mean arterial pressure had fallen from about 100 mm Hg to about 70 mm Hg, with a marked reduction in pulse pressure from about 40 mm to about 10 mm. […] If cardiac output was basically unaffected, reduction in blood pressure would have resulted principally from a reduction in system resistance.
At that time, 40 μg of noradrenaline was introduced.

SMILES | MIC [1] [µg/mL] | MIC [2] [µg/mL] | MIC [3] [µg/mL] | MIC [9] [µg/mL] | effect on endothelial cord formation ([10]; 0.1 μg/ml) | effect on endothelial cord formation ([10]; 1.0 μg/ml) | effect on endothelial cord formation ([10]; 10.0 μg/ml) | similarity of pharmacologic activity in tadpole assay [4] | other results
CC(COS(=O)(=O)O)C(=O)CC[C@@H](C)[C@H]1CC[C@H]2[C@@H]3[C@H](O)C[C@H]4C[C@@H](NCCCNCCCCN)CC[C@]4(C)[C@H]3CC[C@]12C (single isomer, unassigned) [Compound 1360] | 32 (≈ 49.8 µM) | 128 (≈ 199 µM) | 8 (≈ 12.5 µM) |  |  |  |  |  | tadpole response [4]: Swelling and lysis of certain erythrocytes occurred, resulting in accumulation of nuclei within certain small vessels of the tail; tadpole response ([4]; listed as compound 1360): extensive vasocclusion occurred within 60 minutes throughout the tail; effect on blood circulating through embryonic vessels ([5]; within 20 minutes): exhibited a brighter red color
CC(C)C(CO)(CC[C@@H](C)[C@H]1CC[C@H]2[C@@H]3[C@H](O)C[C@H]4C[C@@H](NCCCNCCCCN)CC[C@]4(C)[C@H]3CC[C@]12C)OS(=O)(=O)O (single isomer, unassigned) [Compound 1437] |  |  |  |  |  |  |  |  | hyperglycemia [6]: caused hyperglycemia in mice; anticancer activity [7]: exhibit anticancer activity; tadpole response [4]: Epithelium covering the embryonic portions of the animal, such as the tail and antennae, began to slough off in sheets; also recorded: the larval skin was observed to shed off in a sheet
N.N.[Cl][Pt][Cl] [Cisplatin, reference compound] |  |  |  |  |  |  |  |  | hematological profile [8]: profound anemia by day 28
C[C@H](CCC(=O)O)[C@H]1CC[C@H]2[C@@H]3CC[C@H]4C[C@@H](NCCCNCCCCN)CC[C@]4(C)[C@H]3CC[C@]12C [Compound 319] | 8 (≈ 15.9 µM) | 32 to 64 (≈ 63.5 to 127 µM) | 64 (≈ 127 µM) | 32 (≈ 63.5 µM) | + | + | + |  | effect on endothelial cord formation ([10]; 0.01 μg/ml): -; tadpole response [4]: common vascular occlusive effect; relative activity [5]: especially active; CNS effects (specificity) [11]: no CNS effects; potency as an NHE inhibitor vs squalamine [11]: superior to squalamine; control of B16 melanoma [12]: achieved control of B16 in C57B mice to an extent almost comparable to squalamine
COC(=O)CC[C@@H](C)[C@H]1CC[C@H]2[C@@H]3[C@H](O)C[C@@H]4C[C@H](NCCN)CC[C@]4(C)[C@H]3CC[C@]12C [Compound 410] | 16 (≈ 35.7 µM) | 16 (≈ 35.7 µM) | 16 (≈ 35.7 µM) | 32 (≈ 71.3 µM) | - | + | + | functionally similar to compound 1437 | minimal effective concentration [10]: 10 µg/mL
C[C@H](CCC(=O)O)[C@H]1CC[C@H]2[C@@H]3[C@H](O)C[C@@H]4C[C@H](NCCCNCCCCNCCCN)CC[C@]4(C)[C@H]3CC[C@]12C [Compound 412] | 8 (≈ 13.9 µM) | 64 (≈ 111 µM) | 8 (≈ 13.9 µM) | 8 (≈ 13.9 µM) | - | - | + | pharmacologic activity similar to that seen for FX 3 | minimal effective concentration [10]: > 10 µg/mL
C[C@H](CCC(=O)O)[C@H]1CC[C@H]2[C@@H]3[C@H](O)C[C@@H]4C[C@@H](NCCCNCCCCNCCCN)CC[C@]4(C)[C@H]3CC[C@]12C [Compound 413] | 32 (≈ 55.5 µM) | 256 (≈ 444 µM) | 8 (≈ 13.9 µM) | 64 (≈ 111 µM) | - | - | + | effects like those produced by compound 1436 | minimal effective concentration [10]: > 10 µg/mL
C[C@H](CCC(=O)O)[C@H]1CC[C@H]2[C@@H]3[C@H](O)C[C@@H]4C[C@@H](NCCN)CC[C@]4(C)[C@H]3CC[C@]12C [Compound 415] | 256 (≈ 589 µM) | 128 (≈ 294 µM) | 128 (≈ 294 µM) | 256 (≈ 589 µM) | - | - | +/T |  | minimal effective concentration [10]: > 10 µg/mL; relative activity [5]: especially active
COC(=O)CC[C@@H](C)[C@H]1CC[C@H]2[C@@H]3C[C@@H](O)[C@H]4C[C@@H](NCCN)CC[C@]4(C)[C@H]3CC[C@]12C [Compound 432] | 2 to 4 (≈ 4.46 to 8.91 µM) | 8 to 16 (≈ 17.8 to 35.7 µM) | 1 (≈ 2.23 µM) | 64 (≈ 143 µM) |  | - | - | functionally similar to compound 1437 | 
C[C@H](CCC(=O)O)[C@H]1CC[C@H]2[C@@H]3C[C@@H](O)[C@H]4C[C@@H](NCCN)CC[C@]4(C)[C@H]3CC[C@]12C [Compound 433] | > 256 | > 256 | > 256 | 128 (≈ 294 µM) |  |  |  | functionally similar to compound 1437 | 
COC(=O)CC[C@@H](C)[C@H]1CC[C@H]2[C@@H]3CC[C@H]4C[C@H](NCCCNCCCCNCCCN)CC[C@]4(C)[C@H]3CC[C@]12C [Compound 458] | 2 (≈ 3.48 µM) | 32 (≈ 55.7 µM) | 4 (≈ 6.96 µM) | 64 (≈ 111 µM) |  |  |  | pharmacologic activity similar to that seen for FX 3 | 
COC(=O)CC[C@@H](C)[C@H]1CC[C@H]2[C@@H]3CC[C@H]4C[C@@H](NCCCNCCCCNCCCN)CC[C@]4(C)[C@H]3CC[C@]12C [Compound 459] | 2 (≈ 3.48 µM) | 32 (≈ 55.7 µM) | 1 to 2 (≈ 1.74 to 3.48 µM) | 64 (≈ 111 µM) |  |  |  | pharmacologic activity similar to that seen for FX 3 | 
COC(=O)CC[C@@H](C)[C@H]1CC[C@H]2[C@@H]3C[C@@H](O)[C@H]4C[C@H](NCCCNCCCCNCCCN)CC[C@]4(C)[C@H]3CC[C@]12C [Compound 465] | 4 (≈ 6.77 µM) | 32 (≈ 54.2 µM) | 2 to 4 (≈ 3.38 to 6.77 µM) | 128 (≈ 217 µM) |  |  |  | pharmacologic activity similar to that seen for FX 3 | 
COC(=O)CC[C@@H](C)[C@H]1CC[C@H]2[C@@H]3C[C@@H](O)[C@H]4C[C@@H](NCCCNCCCCNCCCN)CC[C@]4(C)[C@H]3CC[C@]12C [Compound 466] | 2 (≈ 3.38 µM) | 32 (≈ 54.2 µM) | 2 (≈ 3.38 µM) | 32 (≈ 54.2 µM) |  |  |  | pharmacologic activity similar to that seen for FX 3 | 
CC(C)CCC[C@@H](C)[C@H]1CC[C@H]2[C@@H]3[C@H](O)C[C@H]4C[C@H](N)CC[C@]4(C)[C@H]3CC[C@]12C [Compound 1363] | 2 (≈ 4.95 µM) | > 256 | 2 (≈ 4.95 µM) | > 256 |  |  |  | potencies comparable to that of Fraction 1 | 
NC[C@H](O)c1ccc(O)c(O)c1 [noradrenaline, reference compound] |  |  |  |  |  |  |  |  | blood pressure after noradrenaline [13]: An almost immediate increase in blood pressure
